Experimental data taken from ChEMBL document CHEMBL1687756 (Antimicrob Agents Chemother, 2010).

Experiments:
[1] = Ratio of drug level in thymus to plasma in male Beagle dog at 200 mg/kg administered intramuscularly after 3 months; assay type: ADME, organism-based, Canis lupus familiaris; set-up: dose 200 mg/kg, route intramuscular; settings: im
[2] = AUC (0 to infinity) in Beagle dog at 1.25 mg/kg, iv after 2 days; assay type: ADME, organism-based, Canis lupus familiaris; set-up: dose 1.25 mg/kg, route intravenous, time infinity; settings: plasma
[3] = Drug level in Beagle dog skin at injected site at 5 mg/kg, sc after 6 months; assay type: ADME, organism-based, Canis lupus familiaris, Zone of skin; set-up: dose 5 mg/kg, route subcutaneous; settings: read-out: Drug uptake
[4] = AUC (0 to last) in male dog at 400 mg administered intramuscularly after 85 days; settings: plasma, im
[5] = Drug level in female Beagle dog thymus at 200 mg/kg administered intramuscularly after 1 month; assay type: ADME, organism-based, Canis lupus familiaris; set-up: dose 200 mg/kg, route intramuscular; settings: im, read-out: Drug uptake
[6] = Drug level in Beagle dog skin at injected site at 5 mg/kg administered intramuscularly after 3 months; assay type: ADME, organism-based, Canis lupus familiaris, Zone of skin; set-up: dose 5 mg/kg, route intramuscular; settings: im, read-out: Drug uptake
[7] = Drug level in female Beagle dog thymus at 200 mg/kg, sc after 3 months; assay type: ADME, organism-based, Canis lupus familiaris; set-up: dose 200 mg/kg, route subcutaneous; settings: read-out: Drug uptake
[8] = Tmax in female dog at 400 mg administered intramuscularly after 85 days; settings: in vivo, im
Canis familiaris [9] = test: Toxicity in Beagle dog assessed as inflammatory signs at 20 mg/kg administered intramuscularly after 3 months; assay type: organism-based, Canis lupus familiaris; set-up: dose 20 mg/kg, route intramuscular; settings: in vivo, im, 2191.5 h
[10] = AUC (0 to last) in male dog at 200 mg, sc after 85 days; settings: plasma
[11] = Ratio of drug level in spleen to plasma in female Beagle dog at 400 mg/kg administered intramuscularly after 1 month; assay type: ADME, organism-based, Canis lupus familiaris; set-up: dose 400 mg/kg, route intramuscular; settings: im
[12] = Drug level in female Beagle dog spleen at 400 mg/kg administered intramuscularly after 1 month; assay type: ADME, organism-based, Canis lupus familiaris; set-up: dose 400 mg/kg, route intramuscular; settings: im, read-out: Drug uptake
[13] = Drug level in male Beagle dog thymus at 200 mg/kg, sc after 1 month; assay type: ADME, organism-based, Canis lupus familiaris; set-up: dose 200 mg/kg, route subcutaneous; settings: read-out: Drug uptake
[14] = Drug level in Beagle dog lymph node iliac at 5 mg/kg, sc after 3 months; assay type: ADME, organism-based, Canis lupus familiaris; set-up: dose 5 mg/kg, route subcutaneous; settings: read-out: Drug uptake
[15] = Cmax in female dog at 200 mg, sc after 85 days; settings: in vivo
[16] = Ratio of drug level in spleen to plasma in female Beagle dog at 200 mg/kg administered intramuscularly after 1 month; assay type: ADME, organism-based, Canis lupus familiaris; set-up: dose 200 mg/kg, route intramuscular; settings: im
[17] = Drug level in male Beagle dog spleen at 400 mg/kg administered intramuscularly after 3 months; assay type: ADME, organism-based, Canis lupus familiaris; set-up: dose 400 mg/kg, route intramuscular; settings: im, read-out: Drug uptake
[18] = Drug level in Beagle dog thymus at 5 mg/kg, sc after 3 months; assay type: ADME, organism-based, Canis lupus familiaris; set-up: dose 5 mg/kg, route subcutaneous; settings: read-out: Drug uptake
[19] = Cmax in male dog at 200 mg, sc after 85 days; settings: in vivo
[20] = Drug level in male Beagle dog spleen at 400 mg/kg administered intramuscularly after 1 month; assay type: ADME, organism-based, Canis lupus familiaris; set-up: dose 400 mg/kg, route intramuscular; settings: im, read-out: Drug uptake
[21] = Drug level in male Beagle dog thymus at 200 mg/kg administered intramuscularly after 3 months; assay type: ADME, organism-based, Canis lupus familiaris; set-up: dose 200 mg/kg, route intramuscular; settings: im, read-out: Drug uptake
[22] = Drug level in female Beagle dog thymus at 400 mg/kg administered intramuscularly after 1 month; assay type: ADME, organism-based, Canis lupus familiaris; set-up: dose 400 mg/kg, route intramuscular; settings: im, read-out: Drug uptake
[23] = Drug level in Beagle dog lymph node mandibular at 5 mg/kg, sc after 3 months; assay type: ADME, organism-based, Canis lupus familiaris; set-up: dose 5 mg/kg, route subcutaneous; settings: read-out: Drug uptake
[24] = Drug level in Beagle dog lymph node popliteal at 5 mg/kg, sc after 1 month; assay type: ADME, organism-based, Canis lupus familiaris; set-up: dose 5 mg/kg, route subcutaneous; settings: read-out: Drug uptake
[25] = Plasma concentration in female Beagle dog at 400 mg/kg, sc after 1 month; assay type: ADME, organism-based, Canis lupus familiaris; set-up: dose 400 mg/kg, route subcutaneous; settings: read-out: Drug uptake
[26] = Ratio of drug level in lymph node popliteal to plasma in Beagle dog at 5 mg/kg, sc after 6 months; assay type: ADME, organism-based, Canis lupus familiaris; set-up: dose 5 mg/kg, route subcutaneous
[27] = Drug level in Beagle dog spleen at 5 mg/kg, sc after 6 months; assay type: ADME, organism-based, Canis lupus familiaris; set-up: dose 5 mg/kg, route subcutaneous; settings: read-out: Drug uptake
[28] = Plasma concentration in Beagle dog at 5 mg/kg, sc after 6 months; assay type: ADME, organism-based, Canis lupus familiaris; set-up: dose 5 mg/kg, route subcutaneous
[29] = Ratio of drug level in lymph node iliac to plasma in Beagle dog at 5 mg/kg, sc after 1 month; assay type: ADME, organism-based, Canis lupus familiaris; set-up: dose 5 mg/kg, route subcutaneous
[30] = Ratio of drug level in lymph node iliac to plasma in Beagle dog at 5 mg/kg, sc after 6 months; assay type: ADME, organism-based, Canis lupus familiaris; set-up: dose 5 mg/kg, route subcutaneous
[31] = Ratio of drug level in lymph node axillar to plasma in Beagle dog at 5 mg/kg, sc after 3 months; assay type: ADME, organism-based, Canis lupus familiaris; set-up: dose 5 mg/kg, route subcutaneous; settings: axillary lymph node/plasma
[32] = Drug level in female Beagle dog spleen at 200 mg/kg, sc after 1 month; assay type: ADME, organism-based, Canis lupus familiaris; set-up: dose 200 mg/kg, route subcutaneous; settings: read-out: Drug uptake
[33] = Absolute bioavailability in Beagle dog at 5 mg/kg, sc after 176 days; assay type: ADME, organism-based, Canis lupus familiaris; settings: in vivo
[34] = Ratio of drug level in lymph node iliac to plasma in Beagle dog at 5 mg/kg administered intramuscularly after 1 month; assay type: ADME, organism-based, Canis lupus familiaris; set-up: dose 5 mg/kg, route intramuscular; settings: im
[35] = Ratio of drug level in spleen to plasma in male Beagle dog at 200 mg/kg, sc after 1 month; assay type: ADME, organism-based, Canis lupus familiaris; set-up: dose 200 mg/kg, route subcutaneous
[36] = Drug level in Beagle dog lymph node axillar at 5 mg/kg, sc after 3 months; assay type: ADME, organism-based, Canis lupus familiaris; set-up: dose 5 mg/kg, route subcutaneous; settings: axillary lymph node, read-out: Drug uptake
[37] = Ratio of drug level in spleen to plasma in male Beagle dog at 200 mg/kg administered intramuscularly after 1 month; assay type: ADME, organism-based, Canis lupus familiaris; set-up: dose 200 mg/kg, route intramuscular; settings: im
[38] = Drug level in Beagle dog muscle at non-injected site at 5 mg/kg administered intramuscularly after 6 months; assay type: ADME, organism-based, Canis lupus familiaris, Muscle tissue; set-up: dose 5 mg/kg, route intramuscular; settings: im, read-out: Drug uptake
[39] = Absolute bioavailability in Beagle […] at 5 mg/kg administered intramuscularly after 176 days; assay type: ADME, organism-based, Canis lupus familiaris; settings: in vivo, im
[40] = Cmax in Beagle dog at 5 mg/kg administered intramuscularly after 184 days; assay type: ADME, organism-based, Canis lupus familiaris; set-up: dose 5 mg/kg, route intramuscular; settings: in vivo, im
[41] = Drug level in Beagle dog spleen at 5 mg/kg administered intramuscularly after 3 months; assay type: ADME, organism-based, Canis lupus familiaris; set-up: dose 5 mg/kg, route intramuscular; settings: im, read-out: Drug uptake
[42] = Tmax in male dog at 400 mg administered intramuscularly after 29 days; settings: in vivo, im
[43] = Drug level in Beagle dog muscle at injected site at 5 mg/kg, sc after 3 months; assay type: ADME, organism-based, Canis lupus familiaris, Muscle tissue; set-up: dose 5 mg/kg, route subcutaneous; settings: read-out: Drug uptake
[44] = Ratio of drug level in thymus to plasma in male Beagle dog at 400 mg/kg, sc after 3 months; assay type: ADME, organism-based, Canis lupus familiaris; set-up: dose 400 mg/kg, route subcutaneous
[45] = Plasma concentration in female Beagle dog at 200 mg/kg administered intramuscularly after 1 month; assay type: ADME, organism-based, Canis lupus familiaris; set-up: dose 200 mg/kg, route intramuscular; settings: im, read-out: Drug uptake
[46] = Plasma concentration in male Beagle dog at 200 mg/kg administered intramuscularly after 3 months; assay type: ADME, organism-based, Canis lupus familiaris; set-up: dose 200 mg/kg, route intramuscular; settings: im
Canis familiaris [47] = test: Toxicity in Beagle dog assessed as untoward effects at 20 mg/kg, sc; assay type: organism-based, Canis lupus familiaris; set-up: dose 20 mg/kg, route subcutaneous; settings: in vivo
[48] = Plasma concentration in female Beagle dog at 400 mg/kg, sc after 3 months; assay type: ADME, organism-based, Canis lupus familiaris; set-up: dose 400 mg/kg, route subcutaneous
[49] = Ratio of drug level in thymus to plasma in Beagle dog at 5 mg/kg, sc after 3 months; assay type: ADME, organism-based, Canis lupus familiaris; set-up: dose 5 mg/kg, route subcutaneous
[50] = Ratio of drug level in lymph node popliteal to plasma in Beagle dog at 5 mg/kg, sc after 1 month; assay type: ADME, organism-based, Canis lupus familiaris; set-up: dose 5 mg/kg, route subcutaneous
[51] = AUC (0 to last) in male dog at 200 mg, sc after 29 days; settings: plasma
[52] = Plasma concentration in female Beagle dog at 400 mg/kg administered intramuscularly after 3 months; assay type: ADME, organism-based, Canis lupus familiaris; set-up: dose 400 mg/kg, route intramuscular; settings: im
[53] = Plasma concentration in female Beagle dog at 200 mg/kg, sc after 3 months; assay type: ADME, organism-based, Canis lupus familiaris; set-up: dose 200 mg/kg, route subcutaneous
[54] = Drug level in Beagle dog thymus at 5 mg/kg administered intramuscularly after 3 months; assay type: ADME, organism-based, Canis lupus familiaris; set-up: dose 5 mg/kg, route intramuscular; settings: im, read-out: Drug uptake
[55] = Cmax in Beagle dog at 5 mg/kg, sc after 184 days; assay type: ADME, organism-based, Canis lupus familiaris; set-up: dose 5 mg/kg, route subcutaneous; settings: in vivo
[56] = Plasma concentration in female Beagle dog at 400 mg/kg administered intramuscularly after 1 month; assay type: ADME, organism-based, Canis lupus familiaris; set-up: dose 400 mg/kg, route intramuscular; settings: im, read-out: Drug uptake

Cc1cc(/C=C/C#N)cc(C)c1Nc1ccnc(Nc2ccc(C#N)cc2)n1 [RILPIVIRINE]
Kp at 2191.5 h [1]: 3.8 | AUC(0-inf) [2]: 8660 ng·h/mL | concentration at 4383 h [3]: 143000 ng/g | AUC(0-t) at 2040 h [4]: 281000 ng·h/mL | concentration at 730.5 h [5]: 353 ng/g | concentration at 2191.5 h [6]: 16.7 ng/g | concentration at 2191.5 h [7]: 105 ng/g | Tmax [8]: 16 h | Activity (Canis familiaris [9]): Non-toxic | AUC(0-t) at 2040 h [10]: 97800 ng·h/mL | Kp at 730.5 h [11]: 2.6 | concentration at 730.5 h [12]: 311 ng/g | concentration at 730.5 h [13]: 576 ng/g | concentration at 2191.5 h [14]: 16.9 ng/g | Cmax [15]: 191 ng/mL | Kp at 730.5 h [16]: 2.3 | concentration at 2191.5 h [17]: 63.5 ng/g | concentration at 2191.5 h [18]: 43.6 ng/g | Cmax [19]: 107 ng/mL | concentration at 730.5 h [20]: 347 ng/g | concentration at 2191.5 h [21]: 34.4 ng/g | concentration at 730.5 h [22]: 676 ng/g | concentration at 2191.5 h [23]: 13.1 ng/g | concentration at 730.5 h [24]: 68.2 ng/g | concentration at 730.5 h [25]: 227 ng/g | Kp at 4383 h [26]: 4.3 | concentration at 4383 h [27]: 7.1 ng/g | concentration at 4383 h [28]: 1.3 ng/mL | Kp at 730.5 h [29]: 3.9 | Kp at 4383 h [30]: 7.7 | Kp at 2191.5 h [31]: 6.8 | concentration at 730.5 h [32]: 14.5 ng/g | bioavailability [33]: 80% | Kp at 730.5 h [34]: 168 | Kp at 730.5 h [35]: 2 | concentration at 2191.5 h [36]: 22.1 ng/g | Kp at 730.5 h [37]: 1.8 | concentration at 4383 h [38]: < 5 ng/g | bioavailability [39]: 102% | Cmax [40]: 173 ng/mL | concentration at 2191.5 h [41]: < 5 ng/g | Tmax [42]: 17 h | concentration at 2191.5 h [43]: 467 ng/g | Kp at 2191.5 h [44]: 3.5 | concentration at 730.5 h [45]: 61 ng/g | concentration at 2191.5 h [46]: 9.2 ng/mL | Activity (Canis familiaris [47]): Non-toxic | concentration at 2191.5 h [48]: 36 ng/mL | Kp at 2191.5 h [49]: 13 | Kp at 730.5 h [50]: 4.1 | AUC(0-t) at 696 h [51]: 56800 ng·h/mL | concentration at 2191.5 h [52]: 20.3 ng/mL | concentration at 2191.5 h [53]: 26.8 ng/mL | concentration at 2191.5 h [54]: 14.7 ng/g | Cmax [55]: 38 ng/mL | concentration at 730.5 h [56]: 118 ng/g
